Test results as given in patent US20250145665A1, “MACROCYCLIC PEPTIDES USEFUL AS MODULATORS OF TNF ALPHA” (Bristol-Myers Squibb Company, priority 2023, published 2025).
Where two headings read alike, the source gives them in different places. Starred links: 1 amine or outer side, 2 acyl side, 3 side chain; linkers in the order of their positions; H or OH if unused. Positions of bridges follow the written chain, without caps; N, C: chain ends. Non-standard residues stand in square brackets, D forms with d. Residues, ends and D or L forms follow the SMILES beside them. *: point of attachment. Bip(4'-NHCO-C6H4-4-CH2COOH) = N[C@@H](Cc1ccc(-c2ccc(NC(=O)c3ccc(CC(=O)O)cc3)cc2)cc1)C(=O)O; X56 = O=C(O)COc1cccc(NC(=O)c2ccc(-c3ccc(C[C@H](N[*:1])C(=O)[*:2])cc3)cc2)c1; X65 = O=C(O)Cc1cccc(NC(=O)c2ccc(-c3ccc(C[C@H](N[*:1])C(=O)[*:2])cc3)cc2)c1; X21 = N=C(NCCC[C@@H](N[*:1])C(=O)[*:2])NC[C@H](O)[C@@H](O)[C@@H](O)CO; dArg(ω-(2S)-2,3-diOHpropyl) = N=C(NCCC[C@@H](N)C(=O)O)NC[C@H](O)CO; Bip(4'-NH) = O=C([C@H](Cc1ccc(-c2ccc(N[*:3])cc2)cc1)N[*:1])[*:2]; dArg(ω-(3-HO-benzyl)) = N=C(NCCC[C@@H](N)C(=O)O)NCc1cccc(O)c1; Indazole3carbonyl(1-CH2COOH) = O=C(O)Cn1nc(C(=O)*)c2ccccc21; Bip(4'-COOH) = N[C@@H](Cc1ccc(-c2ccc(C(=O)O)cc2)cc1)C(=O)O; Indole3carbonyl(1-CH2COOH) = O=C(O)Cn1cc(C(=O)*)c2ccccc21; X68 = N=C(NCCC[C@@H](N[*:1])C(=O)[*:2])NCc1ccc(O)c(O)c1; X69 = N=C(NCCC[C@@H](N[*:1])C(=O)[*:2])NCc1cccc(N)c1; Ala(imidazol-2-yl) = N[C@@H](Cc1ncc[nH]1)C(=O)O; dArg(ω-Bn) = N=C(NCCC[C@@H](N)C(=O)O)NCc1ccccc1; Ala(morpholin-4-yl) = N[C@@H](CN1CCOCC1)C(=O)O; Benzoyl(3-OCH2COOH) = O=C(O)COc1cccc(C(=O)*)c1; Phe(3-CONH2) = NC(=O)c1cccc(C[C@H](N)C(=O)O)c1; Bip = N[C@@H](Cc1ccc(-c2ccccc2)cc1)C(=O)O; 2Pal = N[C@@H](Cc1ccccn1)C(=O)O; 2Thi = N[C@@H](Cc1cccs1)C(=O)O; Cha = N[C@@H](CC1CCCCC1)C(=O)O; Sar = CNCC(=O)O

Target: TNFα (Homo sapiens, UniProt P01375)
Sequence (P01375 77-233 limits assumed): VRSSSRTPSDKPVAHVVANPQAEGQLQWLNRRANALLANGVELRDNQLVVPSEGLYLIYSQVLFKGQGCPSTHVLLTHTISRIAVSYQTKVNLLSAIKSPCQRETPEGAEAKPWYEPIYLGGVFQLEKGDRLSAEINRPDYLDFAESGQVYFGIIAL
Assay: TNF-Induced HEK-Blue Assay
Type: cell-based
[1] = HEK-Blue-CD40L cells, NF-kB-driven secreted alkaline phosphatase reporter, TNFα 0.5 ng/ml, 18 h, read-out: TNF induced HEK-Blue assay IC50 value

SMILES	IC50 [nM]	IC50 [1] [nM]
CC(C)C[C@@H]1NC(=O)[C@H](Cc2cnc[nH]2)NC(=O)[C@H](C(C)C)NC(=O)[C@@H]2CCCN2C(=O)[C@H](C(C)C)NC(=O)[C@@H](CCCNC(=N)NCc2ccccc2)NC(=O)[C@H](CC(=O)O)NC(=O)[C@H](Cc2ccccn2)NC(=O)CN(C)C(=O)[C@H](Cc2ccc(-c3ccc(NC(=O)c4cn(CC(=O)O)c5ccccc45)cc3)cc2)NC(=O)[C@H](Cc2ccc(-c3ccccc3)cc2)NC(=O)[C@H](CN2CCOCC2)NC(=O)CSC[C@@H](C(=O)NCC(N)=O)NC1=O [Example 629] ({CH2CO}-[Ala(morpholin-4-yl)][Bip][Bip(4'-NH)](Indole3carbonyl(1-CH2COOH))[Sar][2Pal]D[dArg(ω-Bn)]VPVHLCG-NH2; thioether N-13)	50 to 200	–
CC[C@H](C)[C@@H]1NC(=O)[C@@H](CCCNC(=N)N)NC(=O)[C@H](CC(=O)O)NC(=O)[C@H](Cc2cnc[nH]2)NC(=O)CN(C)C(=O)[C@H](Cc2ccc(-c3ccc(C(=O)Nc4cccc(CC(=O)O)c4)cc3)cc2)NC(=O)[C@H](Cc2ccc(-c3ccc(C(=O)O)cc3)cc2)NC(=O)[C@H](CC2CCCCC2)NC(=O)CSC[C@@H](C(=O)NCC(N)=O)NC(=O)[C@H](CC(C)C)NC(=O)[C@H](Cc2cnc[nH]2)NC(=O)[C@H](C(C)C)NC(=O)[C@@H]2CCCN2C1=O [Example 630] ({CH2CO}-[Cha][Bip(4'-COOH)][X65][Sar]HD[dR]IPVHLCG-NH2; thioether N-13)	–	50 to 200
CC[C@H](C)[C@@H]1NC(=O)[C@@H](CCCNC(=N)N)NC(=O)[C@H](CC(=O)O)NC(=O)[C@H](Cc2cnc[nH]2)NC(=O)CN(C)C(=O)[C@H](Cc2ccc(-c3ccc(C(=O)Nc4cccc(OCC(=O)O)c4)cc3)cc2)NC(=O)[C@H](Cc2ccc(-c3ccccc3)cc2)NC(=O)[C@H](Cc2cccc(C(N)=O)c2)NC(=O)CSC[C@@H](C(=O)NCC(N)=O)NC(=O)[C@H](CC(C)C)NC(=O)[C@H](Cc2cnc[nH]2)NC(=O)[C@H](C(C)C)NC(=O)[C@@H]2CCCN2C1=O [Example 631] ({CH2CO}-[Phe(3-CONH2)][Bip][X56][Sar]HD[dR]IPVHLCG-NH2; thioether N-13)	–	50 to 200
CC[C@H](C)[C@@H]1NC(=O)[C@@H](CCCNC(=N)N)NC(=O)[C@H](CC(=O)O)NC(=O)[C@H](Cc2cnc[nH]2)NC(=O)CN(C)C(=O)[C@H](Cc2ccc(-c3ccc(C(=O)Nc4cccc(OCC(=O)O)c4)cc3)cc2)NC(=O)[C@H](Cc2ccc(-c3ccc(C(=O)O)cc3)cc2)NC(=O)[C@H](Cc2cccc(C(N)=O)c2)NC(=O)CSC[C@@H](C(=O)NCC(N)=O)NC(=O)[C@H](CC(C)C)NC(=O)[C@H](Cc2cnc[nH]2)NC(=O)[C@H](C(C)C)NC(=O)[C@@H]2CCCN2C1=O [Example 632] ({CH2CO}-[Phe(3-CONH2)][Bip(4'-COOH)][X56][Sar]HD[dR]IPVHLCG-NH2; thioether N-13)	–	50 to 200
CC[C@H](C)[C@@H]1NC(=O)[C@@H](CCCNC(=N)N)NC(=O)[C@H](CC(=O)O)NC(=O)[C@H](Cc2cnc[nH]2)NC(=O)CN(C)C(=O)[C@H](Cc2ccc(-c3ccc(C(=O)Nc4cccc(CC(=O)O)c4)cc3)cc2)NC(=O)[C@H](Cc2ccc(-c3ccc(C(=O)O)cc3)cc2)NC(=O)[C@H](Cc2cccc(C(N)=O)c2)NC(=O)CSC[C@@H](C(=O)NCC(N)=O)NC(=O)[C@H](CC(C)C)NC(=O)[C@H](Cc2cnc[nH]2)NC(=O)[C@H](C(C)C)NC(=O)[C@@H]2CCCN2C1=O [Example 634] ({CH2CO}-[Phe(3-CONH2)][Bip(4'-COOH)][X65][Sar]HD[dR]IPVHLCG-NH2; thioether N-13)	–	50 to 200
CC(C)C[C@@H]1NC(=O)[C@H](CCCNC(=N)N)NC(=O)[C@H](C(C)C)NC(=O)[C@@H]2CCCN2C(=O)[C@H](C(C)C)NC(=O)[C@@H](CCCNC(=N)NCc2ccc(O)c(O)c2)NC(=O)[C@H](CC(=O)O)NC(=O)[C@@H]2CCCN2C(=O)CN(C)C(=O)[C@H](Cc2ccc(-c3ccc(NC(=O)c4nn(CC(=O)O)c5ccccc45)cc3)cc2)NC(=O)[C@H](Cc2ccc(-c3ccccc3)cc2)NC(=O)[C@H](CN2CCOCC2)NC(=O)CSC[C@@H](C(=O)NCC(N)=O)NC1=O [Example 635] ({CH2CO}-[Ala(morpholin-4-yl)][Bip][Bip(4'-NH)](Indazole3carbonyl(1-CH2COOH))[Sar]PD[X68]VPVRLCG-NH2; thioether N-13)	< 50	–
CC(C)C[C@@H]1NC(=O)[C@H](CCCNC(=N)N)NC(=O)[C@H](C(C)C)NC(=O)[C@@H]2CCCN2C(=O)[C@H](C(C)C)NC(=O)[C@@H](CCCNC(=N)NCc2cccc(N)c2)NC(=O)[C@H](CC(=O)O)NC(=O)[C@@H]2CCCN2C(=O)CN(C)C(=O)[C@H](Cc2ccc(-c3ccc(NC(=O)c4nn(CC(=O)O)c5ccccc45)cc3)cc2)NC(=O)[C@H](Cc2ccc(-c3ccccc3)cc2)NC(=O)[C@H](CN2CCOCC2)NC(=O)CSC[C@@H](C(=O)NCC(N)=O)NC1=O [Example 636] ({CH2CO}-[Ala(morpholin-4-yl)][Bip][Bip(4'-NH)](Indazole3carbonyl(1-CH2COOH))[Sar]PD[X69]VPVRLCG-NH2; thioether N-13)	< 50	–
CC[C@H](C)[C@@H]1NC(=O)[C@@H](CCCNC(=N)NCc2cccc(O)c2)NC(=O)[C@H](CC(=O)O)NC(=O)[C@@H]2CCCN2C(=O)CN(C)C(=O)[C@H](Cc2ccc(-c3ccc(NC(=O)c4nn(CC(=O)O)c5ccccc45)cc3)cc2)NC(=O)[C@H](Cc2ccc(-c3ccccc3)cc2)NC(=O)[C@H](CN2CCOCC2)NC(=O)CSC[C@@H](C(=O)NCC(N)=O)NC(=O)[C@H](CC(C)C)NC(=O)[C@H](Cc2cnc[nH]2)NC(=O)[C@H](C(C)C)NC(=O)[C@@H]2CCCN2C1=O [Example 637] ({CH2CO}-[Ala(morpholin-4-yl)][Bip][Bip(4'-NH)](Indazole3carbonyl(1-CH2COOH))[Sar]PD[dArg(ω-(3-HO-benzyl))]IPVHLCG-NH2; thioether N-13)	< 50	–
CC(C)C[C@@H]1NC(=O)[C@H](Cc2cccs2)NC(=O)[C@H](C(C)C)NC(=O)[C@@H]2CCCN2C(=O)[C@H](C(C)C)NC(=O)[C@@H](CCCNC(=N)NCc2ccccc2)NC(=O)[C@H](CC(=O)O)NC(=O)[C@H](Cc2ccccn2)NC(=O)CN(C)C(=O)[C@H](Cc2ccc(-c3ccc(NC(=O)c4nn(CC(=O)O)c5ccccc45)cc3)cc2)NC(=O)[C@H](Cc2ccc(-c3ccccc3)cc2)NC(=O)[C@H](CN2CCOCC2)NC(=O)CSC[C@@H](C(=O)NCC(N)=O)NC1=O [Example 638] ({CH2CO}-[Ala(morpholin-4-yl)][Bip][Bip(4'-NH)](Indazole3carbonyl(1-CH2COOH))[Sar][2Pal]D[dArg(ω-Bn)]VPV[2Thi]LCG-NH2; thioether N-13)	< 50	–
CC(C)C[C@@H]1NC(=O)[C@H](Cc2cccs2)NC(=O)[C@H](C(C)C)NC(=O)[C@@H]2CCCN2C(=O)[C@H](C(C)C)NC(=O)[C@@H](CCCNC(=N)NC[C@H](O)CO)NC(=O)[C@H](CC(=O)O)NC(=O)[C@H](Cc2ccccn2)NC(=O)CN(C)C(=O)[C@H](Cc2ccc(-c3ccc(NC(=O)c4nn(CC(=O)O)c5ccccc45)cc3)cc2)NC(=O)[C@H](Cc2ccc(-c3ccccc3)cc2)NC(=O)[C@H](CN2CCOCC2)NC(=O)CSC[C@@H](C(=O)NCC(N)=O)NC1=O [Example 639] ({CH2CO}-[Ala(morpholin-4-yl)][Bip][Bip(4'-NH)](Indazole3carbonyl(1-CH2COOH))[Sar][2Pal]D[dArg(ω-(2S)-2,3-diOHpropyl)]VPV[2Thi]LCG-NH2; thioether N-13)	< 50	–
CC(C)C[C@@H]1NC(=O)[C@H](Cc2cccs2)NC(=O)[C@H](C(C)C)NC(=O)[C@@H]2CCCN2C(=O)[C@H](C(C)C)NC(=O)[C@@H](CCCNC(=N)NC[C@H](O)[C@@H](O)[C@@H](O)CO)NC(=O)[C@H](CC(=O)O)NC(=O)[C@H](Cc2ccccn2)NC(=O)CN(C)C(=O)[C@H](Cc2ccc(-c3ccc(NC(=O)c4nn(CC(=O)O)c5ccccc45)cc3)cc2)NC(=O)[C@H](Cc2ccc(-c3ccccc3)cc2)NC(=O)[C@H](CN2CCOCC2)NC(=O)CSC[C@@H](C(=O)NCC(N)=O)NC1=O [Example 640] ({CH2CO}-[Ala(morpholin-4-yl)][Bip][Bip(4'-NH)](Indazole3carbonyl(1-CH2COOH))[Sar][2Pal]D[X21]VPV[2Thi]LCG-NH2; thioether N-13)	50 to 200	–
CC(C)C[C@@H]1NC(=O)[C@H](Cc2ncc[nH]2)NC(=O)[C@H](C(C)C)NC(=O)[C@@H]2CCCN2C(=O)[C@H](C(C)C)NC(=O)[C@@H](CCCNC(=N)NCc2ccccc2)NC(=O)[C@H](CC(=O)O)NC(=O)[C@H](Cc2ccccn2)NC(=O)CN(C)C(=O)[C@H](Cc2ccc(-c3ccc(NC(=O)c4cccc(OCC(=O)O)c4)cc3)cc2)NC(=O)[C@H](Cc2ccc(-c3ccccc3)cc2)NC(=O)[C@H](CN2CCOCC2)NC(=O)CSC[C@@H](C(=O)NCC(N)=O)NC1=O [Example 641] ({CH2CO}-[Ala(morpholin-4-yl)][Bip][Bip(4'-NH)](Benzoyl(3-OCH2COOH))[Sar][2Pal]D[dArg(ω-Bn)]VPV[Ala(imidazol-2-yl)]LCG-NH2; thioether N-13)	–	50 to 200
CC(C)C[C@@H]1NC(=O)[C@H](Cc2ncc[nH]2)NC(=O)[C@H](C(C)C)NC(=O)[C@@H]2CCCN2C(=O)[C@H](C(C)C)NC(=O)[C@@H](CCCNC(=N)NCc2ccccc2)NC(=O)[C@H](CC(=O)O)NC(=O)[C@H](Cc2ccccn2)NC(=O)CN(C)C(=O)[C@H](Cc2ccc(-c3ccc(NC(=O)c4ccc(CC(=O)O)cc4)cc3)cc2)NC(=O)[C@H](Cc2ccc(-c3ccccc3)cc2)NC(=O)[C@H](CN2CCOCC2)NC(=O)CSC[C@@H](C(=O)NCC(N)=O)NC1=O [Example 642] ({CH2CO}-[Ala(morpholin-4-yl)][Bip][Bip(4'-NHCO-C6H4-4-CH2COOH)][Sar][2Pal]D[dArg(ω-Bn)]VPV[Ala(imidazol-2-yl)]LCG-NH2; thioether N-13)	–	200 to 2000
